Measured values published in patent publication US20240398757A1 (COCRYSTAL PHARMA, INC., priority 2022, published 2024).

target: T1, SARS2 protease (Severe acute respiratory syndrome coronavirus 2, UniProt P0DTD1); experiment: SARS-CoV-2 protease inhibition assay (SARS2 FRET protease assay); assay type: biochemical; conditions: IC50 (μM), SARS2 protease 30 nM, peptide substrate 1.3 μM, 120 minutes at 37° C., compounds 20 μM to 0.075 nM
T1 construct: SARS2 protease was added to a final concentration of 30 nM

First: CCCC[C@H](NC(=O)O[C@@H](c1ccccc1)C(C)(C)c1cccc(Cl)c1)C(=O)N[C@H](C=O)C[C@@H]1CCNC1=O [Compound A61]
Second: CCCC[C@H](NC(=O)O[C@H](c1ccccc1)C(C)(C)c1cccc(Cl)c1)C(=O)N[C@H](C=O)C[C@@H]1CCNC1=O [Compound A62]
The IC50 of the first is lower: less than 0.1 nM for the first, 148 nM for the second. The first is the more potent here.

First: CCCC[C@H](NC(=O)OC(c1ccc(F)cc1)C1(c2cccc(F)c2)CC1)C(=O)N[C@H](C=O)C[C@@H]1CCNC1=O (stereo partly shown) [Compound A64]
Second: CCCC[C@H](NC(=O)OC(c1ccc(F)cc1)C1(c2cccc(Cl)c2)CC1)C(=O)N[C@H](C=O)C[C@@H]1CCNC1=O (stereo partly shown) [Compound A91]
The IC50 of the first is 3.3-fold lower: 3 nM for the first, 10 nM for the second. The first is the more potent here.

CC(C)C[C@H](NC(=O)OC(c1cccc(Cl)c1)C1(c2cccc(Cl)c2)CCCCC1)C(=O)N[C@@H](C[C@@H]1CCNC1=O)C(=O)C(=O)NC1CC1 (stereo partly shown) [Compound A65] and CC(C)C[C@H](NC(=O)OC(c1cccc(Cl)c1)C1(c2cccc(Cl)c2)CCNCC1)C(=O)N[C@@H](C[C@@H]1CCNC1=O)C(=O)C(=O)NC1CC1 (stereo partly shown) [Compound A83] are within 1.5-fold of each other in IC50: 571 nM for the first, 510 nM for the second.

Compared with CCC(CC)(c1cccc(Cl)c1)C(OC(=O)N[C@@H](CC(C)C)C(=O)N[C@H](C=O)C[C@@H]1CCNC1=O)c1cccc(Cl)c1 (stereo partly shown) [Compound A66], CC(C)C[C@H](NC(=O)O[C@@H](c1ccccc1)C(F)(F)c1cccc(Cl)c1)C(=O)N[C@H](C=O)C[C@@H]1CCNC1=O [Compound A72, 2-(3-chlorophenyl)-2,2-difluoro-1-phenylethyl ((S)-4-methyl-1-oxo-1-(((S)-1-oxo-3-((S)-2-oxopyrrolidin-3-yl)propan-2-yl)amino)pentan-2-yl)carbamate] is lower in IC50: 259 nM for the first, less than 0.01 nM for the second. The second is the more potent here.

Going from O=C[C@H](C[C@@H]1CCNC1=O)NC(=O)[C@H](CC1CCCCC1)NC(=O)OC(c1ccccc1)C(F)(F)c1cccc(F)c1 (stereo partly drawn) [Compound A67, 2,2-difluoro-2-(3-fluorophenyl)-1-phenylethyl ((S)-3-cyclohexyl-1-oxo-1-(((S)-1-oxo-3-((S)-2-oxopyrrolidin-3-yl)propan-2-yl)amino)propan-2-yl)carbamate] to O=C[C@H](C[C@@H]1CCNC1=O)NC(=O)[C@H](CC1CCCC1)NC(=O)OC(c1ccccc1)C(F)(F)c1cccc(Cl)c1 (stereo partly drawn) [Compound A93, 2-(3-chlorophenyl)-2,2-difluoro-1-phenylethyl ((S)-3-cyclopentyl-1-oxo-1-(((S)-1-oxo-3-((S)-2-oxopyrrolidin-3-yl)propan-2-yl)amino)propan-2-yl)carbamate], the IC50 falls from 2 nM to 0.3 nM (6.7-fold).

Compared with CCCC[C@H](NC(=O)OC(c1ccccc1)C(C)(C)c1cccc(F)c1)C(=O)N[C@@H](C[C@@H]1CCNC1=O)C(=O)C(=O)NCC (stereo partly shown) [Compound A68], CCCC[C@H](NC(=O)OC(c1ccccc1)C(F)(F)c1cccc(F)c1)C(=O)N[C@@H](C[C@@H]1CCNC1=O)C(=O)C(=O)NC1CC1 (stereo partly shown) [Compound A87] is 3.1-fold higher in IC50: 29 nM for the first, 90 nM for the second.

First: CCCC[C@H](NC(=O)OC(c1ccc(F)cc1)C(F)(F)c1cccc(Cl)c1)C(=O)N[C@H](C=O)C[C@@H]1CCNC1=O (stereo partly shown) [Compound A69]
Second: CCCC[C@H](NC(=O)OC(c1cccc(F)c1)C(F)(F)c1cccc(Cl)c1)C(=O)N[C@H](C=O)C[C@@H]1CCNC1=O (stereo partly shown) [Compound A99]
The IC50 of the first is 13-fold higher: 8 nM for the first, 0.6 nM for the second.

Going from CCCC[C@H](NC(=O)OC(c1ccc(F)cc1)C(F)(F)c1cccc(Cl)c1)C(=O)N[C@@H](C[C@@H]1CCNC1=O)C(=O)C(=O)NC1CC1 (stereo partly shown) [Compound A70] to CCCC[C@H](NC(=O)OC(c1cccc(F)c1)C(F)(F)c1cccc(Cl)c1)C(=O)N[C@@H](C[C@@H]1CCNC1=O)C(=O)C(=O)NC1CC1 (stereo partly shown) [Compound A106], the IC50 rises from 28 nM to 170 nM (6.1-fold). The first is the more potent here.

First: CCCC[C@H](NC(=O)OC(c1ccc(F)cc1)C1(c2cccc(F)c2)CC1)C(=O)N[C@@H](C[C@@H]1CCNC1=O)C(=O)C(=O)NC1CC1 (stereo partly shown) [Compound A71]
Second: CCCC[C@H](NC(=O)OC(c1ccc(F)cc1)C1(c2cccc(Cl)c2)CC1)C(=O)N[C@@H](C[C@@H]1CCNC1=O)C(=O)C(=O)NC1CC1 (stereo partly shown) [Compound A76]
The IC50 of the first is 4.2-fold higher: 222 nM for the first, 53 nM for the second. The second is the more potent here.

Going from CCCC[C@H](NC(=O)OC(c1ccccc1)C(F)(F)c1cccc(Cl)c1)C(=O)NC(CC1CC(C)(C)NC1=O)C(=O)C(=O)NC1CC1 (stereo partly shown) [Compound A73] to CCC[C@H](NC(=O)OC(c1ccccc1)C(F)(F)c1cccc(Cl)c1)C(=O)N[C@@H](C[C@@H]1CCNC1=O)C(=O)C(=O)NC1CC1 (stereo partly shown) [Compound A109], the IC50 falls from 1390 nM to 170 nM (8.2-fold).

O=C(N[C@@H](CC1CCCCC1)C(=O)N[C@@H](C[C@@H]1CCNC1=O)C(=O)C(=O)NC1CC1)OC(c1ccccc1)C(F)(F)c1cccc(F)c1 (stereo partly drawn) [Compound A74, 2,2-difluoro-2-(3-fluorophenyl)-1-phenylethyl ((S)-3-cyclohexyl-1-(((S)-4-(cyclopropylamino)-3,4-dioxo-1-((S)-2-oxopyrrolidin-3-yl)butan-2-yl)amino)-1-oxopropan-2-yl)carbamate] and O=C(N[C@@H](CC1CCCC1)C(=O)N[C@@H](C[C@@H]1CCNC1=O)C(=O)C(=O)NC1CC1)OC(c1ccccc1)C(F)(F)c1cccc(Cl)c1 (stereo partly shown) [Compound A103] are within 1.5-fold of each other in IC50: 186 nM for the first, 156 nM for the second.

Going from O=C(N[C@@H](CC1CCCCC1)C(=O)N[C@@H](C[C@@H]1CCNC1=O)C(O)S(=O)(=O)O)OC(c1ccccc1)C(F)(F)c1cccc(Cl)c1 (stereo partly shown) [Compound A75] to CCC(=O)OC([C@H](C[C@@H]1CCNC1=O)NC(=O)[C@H](CC1CCCCC1)NC(=O)OC(c1ccccc1)C(F)(F)c1cccc(Cl)c1)S(=O)(=O)O (stereo partly shown) [Compound A101], the IC50 rises from 9 nM to 178 nM (20-fold).

First: CCCC[C@H](NC(=O)OC(c1ccccc1)C(F)(F)c1cccc(F)c1)C(=O)N[C@H](C=O)C[C@@H]1CCNC1=O (stereo partly drawn) [Compound A77, 2,2-difluoro-2-(3-fluorophenyl)-1-phenylethyl ((S)-1-oxo-1-(((S)-1-oxo-3-((S)-2-oxopyrrolidin-3-yl)propan-2-yl)amino)hexan-2-yl)carbamate]
Second: CCC[C@H](NC(=O)OC(c1ccccc1)C(F)(F)c1cccc(F)c1)C(=O)N[C@H](C=O)C[C@@H]1CCNC1=O (stereo partly shown) [Compound A89]
The IC50 of the first is 2.2-fold lower: 9 nM for the first, 20 nM for the second.

Compared with CCCC[C@H](NC(=O)OC(c1cccc(F)c1)C(F)(F)c1cccc(F)c1)C(=O)N[C@H](C=O)C[C@@H]1CCNC1=O (stereo partly shown) [Compound A78], CCCC[C@H](NC(=O)OC(c1cccc(F)c1)C(F)(F)c1cccc(F)c1)C(=O)N[C@@H](C[C@@H]1CCNC1=O)C(=O)C(=O)NC1CC1 (stereo partly shown) [Compound A80] is 16-fold higher in IC50: 9 nM for the first, 140 nM for the second.

First: CC(C)C[C@H](NC(=O)O[C@H](c1ccccc1)C(F)(F)c1cccc(Cl)c1)C(=O)N[C@H](C=O)C[C@@H]1CCNC1=O [Compound A79]
Second: CCC[C@H](NC(=O)OC(c1ccccc1)C(F)(F)c1cccc(Cl)c1)C(=O)N[C@H](C=O)C[C@@H]1CCNC1=O (stereo partly shown) [Compound A98]
The IC50 of the first is 6.8-fold higher: 13 nM for the first, 1.9 nM for the second. The second is the more potent here.

Compared with CCCC[C@H](NC(=O)OC(c1ccccc1)C(F)(F)c1cccc(Cl)c1)C(=O)N[C@H](C=O)CC1CC(C)(C)NC1=O (stereo partly shown) [Compound A81], CCCC[C@H](NC(=O)O[C@@H](c1ccccc1)C(F)(F)c1cccc(Cl)c1)C(=O)N[C@H](C=O)C[C@@H]1CCNC1=O [Compound A107, (S)-2-(3-chlorophenyl)-2,2-difluoro-1-phenylethyl ((S)-1-oxo-1-(((S)-1-oxo-3-((S)-2-oxopyrrolidin-3-yl)propan-2-yl)amino)hexan-2-yl)carbamate] is 470-fold lower in IC50: 470 nM for the first, 1 nM for the second. The second is the more potent here.

CC(C)C[C@H](NC(=O)OC(c1ccc(Cl)cc1)C1(c2cccc(Cl)c2)CCN(C(=O)OC(C)(C)C)CC1)C(=O)N[C@H](C=O)C[C@@H]1CCNC1=O (stereo partly shown) [Compound A85] and CC(C)C[C@H](NC(=O)OC(c1cccc(Cl)c1)C1(c2cccc(Cl)c2)CCN(C(=O)OC(C)(C)C)CC1)C(=O)N[C@H](C=O)C[C@@H]1CCNC1=O (stereo partly shown) [Compound A86] are within 1.5-fold of each other in IC50: 460 nM for the first, 370 nM for the second.

First: CC(C)C[C@H](NC(=O)OC(c1ccc(Cl)cc1)C1(c2cccc(Cl)c2)CCN(C(=O)OC(C)(C)C)CC1)C(=O)N[C@@H](C[C@@H]1CCNC1=O)C(=O)C(=O)NC1CC1 (stereo partly shown) [Compound A88]
Second: CC(C)C[C@H](NC(=O)OC(c1ccc(Cl)cc1)C1(c2cccc(Cl)c2)CCNCC1)C(=O)N[C@@H](C[C@@H]1CCNC1=O)C(=O)C(=O)NC1CC1 (stereo partly shown) [Compound A92]
The IC50 of the first is 1.8-fold lower: 630 nM for the first, 1120 nM for the second.

First: CCCC[C@H](NC(=O)OC(c1ccccc1)C1(c2cccc(Cl)c2)CC1)C(=O)N[C@H](C=O)C[C@@H]1CCNC1=O (stereo partly shown) [Compound A90]
Second: CCCC[C@H](NC(=O)OC(c1cccc(F)c1)C1(c2cccc(Cl)c2)CC1)C(=O)N[C@H](C=O)C[C@@H]1CCNC1=O (stereo partly shown) [Compound A96]
The IC50 of the first is 5.7-fold higher: 40 nM for the first, 7 nM for the second. The second is the more potent here.

Going from O=C(N[C@@H](CC1CC1)C(=O)N[C@@H](C[C@@H]1CCNC1=O)C(=O)C(=O)NC1CC1)OC(c1ccccc1)C(F)(F)c1cccc(Cl)c1 (stereo partly shown) [Compound A94] to CCC[C@H](NC(=O)OC(c1ccccc1)C(F)(F)c1cccc(F)c1)C(=O)N[C@@H](C[C@@H]1CCNC1=O)C(=O)C(=O)NC1CC1 (stereo partly shown) [Compound A100], the IC50 rises from 12.3 nM to 250 nM (20-fold). The first is the more potent here.

Going from O=C[C@H](C[C@@H]1CCNC1=O)NC(=O)[C@H](CC1CC1)NC(=O)OC(c1ccccc1)C(F)(F)c1cccc(Cl)c1 (stereo partly shown) [Compound A95] to O=C[C@H](C[C@@H]1CCNC1=O)NC(=O)[C@H](CC1CCC1)NC(=O)OC(c1ccccc1)C(F)(F)c1cccc(Cl)c1 (stereo partly shown) [Compound A102], the IC50 falls from 0.9 nM to 0.1 nM (9-fold).

Going from CCCC[C@H](NC(=O)OC(c1cccc(F)c1)C1(c2cccc(F)c2)CC1)C(=O)N[C@H](C=O)C[C@@H]1CCNC1=O (stereo partly shown) [Compound A97] to CCCC[C@H](NC(=O)OC(c1cccc(F)c1)C1(c2cccc(F)c2)CC1)C(=O)N[C@@H](C[C@@H]1CCNC1=O)C(=O)C(=O)NC1CC1 (stereo partly shown) [Compound A104], the IC50 rises from 2.1 nM to 309 nM (150-fold).

First: CCCC[C@H](NC(=O)OC(c1cccc(F)c1)C1(c2cccc(Cl)c2)CC1)C(=O)N[C@@H](C[C@@H]1CCNC1=O)C(=O)C(=O)NC1CC1 (stereo partly shown) [Compound A105]
Second: CCCC[C@H](NC(=O)O[C@H](c1ccccc1)C(F)(F)c1cccc(Cl)c1)C(=O)N[C@H](C=O)C[C@@H]1CCNC1=O [Compound A110, (R)-2-(3-chlorophenyl)-2,2-difluoro-1-phenylethyl ((S)-1-oxo-1-(((S)-1-oxo-3-((S)-2-oxopyrrolidin-3-yl)propan-2-yl)amino)hexan-2-yl)carbamate]
The IC50 of the first is 2600-fold higher: 510 nM for the first, 0.2 nM for the second. The second is the more potent here.
